Assay results as given in patent US11840686B2, “Modulation of prekallikrein (PKK) expression” (Ionis Pharmaceuticals, Inc., priority 2013, dated 2023).
Strand notation (5' to 3'): a small letter for the sugar, then the base; units joined by * are phosphorothioate-linked, units joined directly phosphodiester-linked; [ ] holds rarer units or linkages, { } end groups; capitals alone tell only the bases. e = 2'-O-(2-methoxyethyl) (MOE); [5mC] = 5-methylcytosine; d = 2'-deoxy (DNA)

Key:
human PKK mRNA [1] = experiment: Antisense inhibition of human PKK mRNA in HepaRG cells, 5,000 nM (Example 2); assay type: cell-based
Method in brief: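 Percent inhibition of PKK mRNA is reported relative to untreated cells, after adjustment for total RNA by RIBOGREEN. Gapmers of 16–20 nucleosides with 2′-MOE wings were delivered at 5,000 nM by electroporation into HepaRG cells and left for roughly 24 hours before RNA isolation.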

human PKK mRNA [2] = experiment: Dose-dependent antisense inhibition of human PKK in HepaRG cells, 0.19-5.00 uM (Example 5); assay type: cell-based
Method in brief: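 HepaRG cells (20,000/well) were electroporated with antisense oligonucleotide at 0.19, 0.56, 1.67 and 5.00 μM and treated for about 16 hours. PKK mRNA was quantified by qRT-PCR with primer probe set RTS3454, normalised to RIBOGREEN total RNA, and IC50 was derived per oligonucleotide.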

human PKK mRNA [3] = experiment: Human PKK mRNA in liver of human KLKB1 transgenic mice (Example 7); assay type: in vivo; settings: twice a week for 3 weeks
Method: (§1) Transgenic mice containing a 37,390 base pair fragment of the human KLKB1 gene sequence (chromosome 4: position 187148672-187179625, accession no: NC_000004.11) were treated with ISIS antisense oligonucleotides selected from studies described above, which were evaluated for efficacy in this model.
(§2) Groups of transgenic mice were injected subcutaneously twice a week for 3 weeks with 2.5 mg/kg/week, 5.0 mg/kg/week, 10 mg/kg/week or 20 mg/kg/week of ISIS 546232, ISIS 546251, ISIS 546254, ISIS 546343, ISIS 546828, ISIS 547455, ISIS 547457, ISIS 547927, and ISIS 548048. One group of transgenic mice was injected subcutaneously twice a week for 3 weeks with PBS. Mice were euthanized 48 hours after the last dose, and organs and plasma were harvested for further analysis.
To evaluate the effect of ISIS oligonucleotides on target reduction, RNA was extracted from liver tissue for real-time PCR analysis of human PKK. Results are presented as percent inhibition of PKK mRNA, relative to PBS control.

PKK protein = experiment: Plasma PKK protein levels in human KLKB1 transgenic mice (Example 7); assay type: in vivo; settings: plasma, twice a week for 3 weeks
Method: as §1, §2
Plasma PKK protein levels were evaluated in all groups. Results are presented as percent inhibition of PKK protein, relative to PBS control.

PKK mRNA = PKK mRNA in cynomolgus monkey liver (Example 8); assay type: in vivo; settings: 40 mg/kg s.c., loading then weekly to week 13; day 87 or 88, 48 h after final dose
Method: Cynomolgus monkeys were treated with ISIS antisense oligonucleotides selected from studies described above. Antisense oligonucleotide efficacy and tolerability were evaluated. The human antisense oligonucleotides tested are cross-reactive with the rhesus genomic sequence (GENBANK Accession No. NW_001118167.1 truncated from nucleotides 2358000 to 2391000 and designated herein as SEQ ID NO: 18).
On day 87 or 88, 48 hours after the final dose, RNA was extracted from liver tissue for real-time PCR analysis of PKK using primer probe set RTS3455 (forward sequence […], designated herein as SEQ ID NO: 23; reverse sequence […], designated herein as SEQ ID NO: 24; probe sequence […], designated herein as SEQ ID NO: 25). The results were normalized to the housekeeping gene, Cyclophilin. Results are presented as percent inhibition of PKK mRNA, relative to PBS control.

[4] = HepaRG cells, electroporation, approximately 16 hours, Table 41
[5] = 4 point dose response, HepaRG cells, Table 41
[6] = Table 34, HepaRG, electroporation, ~16 h
[7] = Table 34, PKK mRNA, HepaRG, electroporation, ~16 h
[8] = Table 9 experiment, HepaRG cells, 20,000 cells per well, electroporation with 5,000 nM antisense oligonucleotide, approx. 24 hours, PKK mRNA by RT-PCR (RTS3454), relative to untreated control cells
[9] = Table 10 experiment, HepaRG cells, 20,000 cells per well, electroporation with 5,000 nM antisense oligonucleotide, approx. 24 hours, PKK mRNA by RT-PCR (RTS3454), relative to untreated control cells
[10] = HepaRG cells, electroporation, approximately 16 hours, Table 39

## 546828 (eA*e[5mC]*eA*eG*eT*dA*dT*d[5mC]*dA*d[5mC]*dT*dG*dT*dA*d[5mC]*eT*eA*eG*eT*eT) [compound 546828]
Human PKK mRNA [1]; Table 13, human PKK mRNA in HepaRG cells, 5-10-5 gapmers
  % inhibition: 95%
Human PKK mRNA [2]; [4]
  percent inhibition of PKK at 5.00 μM: 97%
  percent inhibition of PKK at 0.19 0μM: 0%
  percent inhibition of PKK at 0.56 0μM: 64%
  percent inhibition of PKK at 1.67 1μM: 89%
Human PKK mRNA [2]; [5]
  IC50: 200 nM
Human PKK mRNA [2]; [6]
  percent inhibition of PKK at 0.19 μM: 39%
  percent inhibition of PKK at 0.56 μM: 58%
  percent inhibition of PKK at 1.67 μM: 87%
  percent inhibition of PKK at 5.00 μM: 93%
Human PKK mRNA [2]; [7]
  IC50: 300 nM
Human PKK mRNA [3]; 2.5 mg/kg/week sc
  % inhibition of PKK mRNA in the transgenic mice liver relative to the PBS control: 77%
Human PKK mRNA [3]; 5 mg/kg/week sc
  % inhibition of PKK mRNA in the transgenic mice liver relative to the PBS control: 62%
Human PKK mRNA [3]; 10 mg/kg/week sc
  % inhibition of PKK mRNA in the transgenic mice liver relative to the PBS control: 32%
Human PKK mRNA [3]; 20 mg/kg/week sc
  % inhibition of PKK mRNA in the transgenic mice liver relative to the PBS control: 83%
PKK protein; 2.5 mg/kg/week sc
  % inhibition of PKK protein levels in the transgenic mice relative to the PBS control: 0%
PKK protein; 5 mg/kg/week sc
  % inhibition of PKK protein levels in the transgenic mice relative to the PBS control: 25%
PKK protein; 10 mg/kg/week sc
  % inhibition of PKK protein levels in the transgenic mice relative to the PBS control: 36%
PKK protein; 20 mg/kg/week sc
  % inhibition of PKK protein levels in the transgenic mice relative to the PBS control: 93%
PKK mRNA
  % inhibition of PKK mRNA in the cynomolgus monkey liver relative to the PBS control: 45%

## 546343 (antisense e[5mC]*e[5mC]*e[5mC]*e[5mC]*e[5mC]*dT*dT*d[5mC]*dT*dT*dT*dA*dT*dA*dG*e[5mC]*e[5mC]*eA*eG*e[5mC]) [compound 546343]
Human PKK mRNA [1]; [8]
  % inhibition: 97%
Human PKK mRNA [1]; [9]
  % inhibition: 91%
Human PKK mRNA [2]; [4]
  percent inhibition of PKK at 5.00 μM: 95%
  percent inhibition of PKK at 0.19 0μM: 37%
  percent inhibition of PKK at 0.56 0μM: 32%
  percent inhibition of PKK at 1.67 1μM: 83%
Human PKK mRNA [2]; [5]
  IC50: 400 nM
Human PKK mRNA [2]; [6]
  percent inhibition of PKK at 0.19 μM: 28%
  percent inhibition of PKK at 0.56 μM: 64%
  percent inhibition of PKK at 1.67 μM: 87%
  percent inhibition of PKK at 5.00 μM: 87%
Human PKK mRNA [2]; [7]
  IC50: 400 nM
Human PKK mRNA [3]; 2.5 mg/kg/week sc
  % inhibition of PKK mRNA in the transgenic mice liver relative to the PBS control: 46%
Human PKK mRNA [3]; 10 mg/kg/week sc
  % inhibition of PKK mRNA in the transgenic mice liver relative to the PBS control: 66%
Human PKK mRNA [3]; 20 mg/kg/week sc
  % inhibition of PKK mRNA in the transgenic mice liver relative to the PBS control: 86%
PKK protein; 2.5 mg/kg/week sc
  % inhibition of PKK protein levels in the transgenic mice relative to the PBS control: 0%
PKK protein; 10 mg/kg/week sc
  % inhibition of PKK protein levels in the transgenic mice relative to the PBS control: 38%
PKK protein; 20 mg/kg/week sc
  % inhibition of PKK protein levels in the transgenic mice relative to the PBS control: 79%
PKK mRNA
  % inhibition of PKK mRNA in the cynomolgus monkey liver relative to the PBS control: 74%

## 547455 (antisense eA*eT*eA*eT*e[5mC]*dA*dT*dG*dA*dT*dT*d[5mC]*d[5mC]*d[5mC]*dT*eT*e[5mC]*eT*eG*eA) [compound 547455]
Human PKK mRNA [1]; [8]
  % inhibition: 88%
Human PKK mRNA [1]; [9]
  % inhibition: 66%
Human PKK mRNA [3]; 2.5 mg/kg/week sc
  % inhibition of PKK mRNA in the transgenic mice liver relative to the PBS control: 0%
Human PKK mRNA [3]; 5 mg/kg/week sc
  % inhibition of PKK mRNA in the transgenic mice liver relative to the PBS control: 69%
Human PKK mRNA [3]; 10 mg/kg/week sc
  % inhibition of PKK mRNA in the transgenic mice liver relative to the PBS control: 45%
Human PKK mRNA [3]; 20 mg/kg/week sc
  % inhibition of PKK mRNA in the transgenic mice liver relative to the PBS control: 62%
PKK protein; 2.5 mg/kg/week sc
  % inhibition of PKK protein levels in the transgenic mice relative to the PBS control: 0%
PKK protein; 5 mg/kg/week sc
  % inhibition of PKK protein levels in the transgenic mice relative to the PBS control: 0%
PKK protein; 10 mg/kg/week sc
  % inhibition of PKK protein levels in the transgenic mice relative to the PBS control: 32%
PKK protein; 20 mg/kg/week sc
  % inhibition of PKK protein levels in the transgenic mice relative to the PBS control: 78%
PKK mRNA
  % inhibition of PKK mRNA in the cynomolgus monkey liver relative to the PBS control: 90%

## 547457 (antisense eA*eA*eG*eG*e[5mC]*dG*dA*dT*dA*dT*d[5mC]*dA*dT*dG*dA*eT*eT*e[5mC]*e[5mC]*e[5mC]) [compound 547457]
Human PKK mRNA [1]; [8]
  % inhibition: 89%
Human PKK mRNA [1]; [9]
  % inhibition: 92%
Human PKK mRNA [2]; [10]
  percent inhibition of PKK at 0.19 μM: 41%
  percent inhibition of PKK at 0.56 μM: 65%
  percent inhibition of PKK at 1.67 μM: 80%
  percent inhibition of PKK at 5.00 μM: 85%
Human PKK mRNA [2]; 4 point dose response, HepaRG cells, Table 39
  IC50: 300 nM
Human PKK mRNA [2]; HepaRG cells, 0.19 μM antisense oligonucleotide
  percent inhibition of PKK mRNA, 0.19 μM: 33%
Human PKK mRNA [2]; HepaRG cells, 0.56 μM antisense oligonucleotide
  percent inhibition of PKK mRNA, 0.56 μM: 42%
Human PKK mRNA [2]; HepaRG cells, 1.67 μM antisense oligonucleotide
  percent inhibition of PKK mRNA, 1.67 μM: 70%
Human PKK mRNA [2]; HepaRG cells, 5.00 μM antisense oligonucleotide
  percent inhibition of PKK mRNA, 5.00 μM: 83%
Human PKK mRNA [2]; HepaRG cells, 0.19-5.00 μM
  IC50: 600 nM
Human PKK mRNA [3]; 2.5 mg/kg/week sc
  % inhibition of PKK mRNA in the transgenic mice liver relative to the PBS control: 0%
Human PKK mRNA [3]; 5 mg/kg/week sc
  % inhibition of PKK mRNA in the transgenic mice liver relative to the PBS control: 69%
Human PKK mRNA [3]; 10 mg/kg/week sc
  % inhibition of PKK mRNA in the transgenic mice liver relative to the PBS control: 45%
Human PKK mRNA [3]; 20 mg/kg/week sc
  % inhibition of PKK mRNA in the transgenic mice liver relative to the PBS control: 62%
PKK protein; 2.5 mg/kg/week sc
  % inhibition of PKK protein levels in the transgenic mice relative to the PBS control: 0%
PKK protein; 5 mg/kg/week sc
  % inhibition of PKK protein levels in the transgenic mice relative to the PBS control: 4%
PKK protein; 10 mg/kg/week sc
  % inhibition of PKK protein levels in the transgenic mice relative to the PBS control: 31%
PKK protein; 20 mg/kg/week sc
  % inhibition of PKK protein levels in the transgenic mice relative to the PBS control: 60%
PKK mRNA
  % inhibition of PKK mRNA in the cynomolgus monkey liver relative to the PBS control: 89%
